What was measured:
[1] = biological target: T1, BCR-KIT BaF3 cells (Homo sapiens, UniProt P10721); assay: BaF3 BCR-KIT cell proliferation assay (ATPlite); format: cell-based; conditions: read-out: Inhibition of Cell Proliferation IC50, BCR/BaF3 Kit
T1 construct: fused on or other part: P11274 (Breakpoint cluster region protein)
Outline: (§1)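 BaF3 lines were seeded at 10,000 cells/well in growth medium with 1 mg/mL G418 but no IL-3, and MV-4-11 cells at 25,000 cells/well; plates were left overnight at 37 °C. Compounds were added as an 8-point 1:3 series with a top concentration of 10 μM and incubated 3 days. IC50 was taken from ATPlite luminescence.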

[2] = biological target: T2, BCR-FMS BaF3 cells (Homo sapiens, UniProt P07333); assay: BaF3 BCR-FMS cell proliferation assay (ATPlite); format: cell-based; conditions: read-out: Inhibition of Cell Proliferation IC50, BCR/BaF3 Fms
T2 construct: fused on or other part: P11274 (Breakpoint cluster region protein)
T2 sequence (P07333 582-910): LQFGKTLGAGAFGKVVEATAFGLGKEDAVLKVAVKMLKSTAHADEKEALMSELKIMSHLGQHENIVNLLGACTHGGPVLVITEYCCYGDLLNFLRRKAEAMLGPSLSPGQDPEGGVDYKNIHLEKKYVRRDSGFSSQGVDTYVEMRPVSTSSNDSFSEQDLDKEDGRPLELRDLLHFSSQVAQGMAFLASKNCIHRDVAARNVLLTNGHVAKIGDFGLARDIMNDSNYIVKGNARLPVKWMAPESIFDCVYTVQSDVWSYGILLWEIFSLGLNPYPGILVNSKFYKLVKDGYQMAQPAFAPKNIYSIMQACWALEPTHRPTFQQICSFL
Outline: as §1

[3] = biological target: Fms kinase (Homo sapiens, UniProt P07333); assay: Fms kinase biochemical activity assay (AlphaScreen, biotin-(E4Y)10 phosphorylation); conditions: 100 μM ATP; read-out: Biochemical Inhibition IC50 Fms
Outline: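 Fms kinase (1 ng/well) phosphorylating 30 nM biotin-(E4Y)10 with 100 μM ATP in 25 mM Hepes pH 7.5, MgCl2/MnCl2, 5% DMSO, 20 min at 30 °C. Phosphotyrosine detected by AlphaScreen streptavidin donor and PY20 acceptor beads; IC50 from signal versus compound concentration.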

Chain of Fms kinase (P07333 20-972): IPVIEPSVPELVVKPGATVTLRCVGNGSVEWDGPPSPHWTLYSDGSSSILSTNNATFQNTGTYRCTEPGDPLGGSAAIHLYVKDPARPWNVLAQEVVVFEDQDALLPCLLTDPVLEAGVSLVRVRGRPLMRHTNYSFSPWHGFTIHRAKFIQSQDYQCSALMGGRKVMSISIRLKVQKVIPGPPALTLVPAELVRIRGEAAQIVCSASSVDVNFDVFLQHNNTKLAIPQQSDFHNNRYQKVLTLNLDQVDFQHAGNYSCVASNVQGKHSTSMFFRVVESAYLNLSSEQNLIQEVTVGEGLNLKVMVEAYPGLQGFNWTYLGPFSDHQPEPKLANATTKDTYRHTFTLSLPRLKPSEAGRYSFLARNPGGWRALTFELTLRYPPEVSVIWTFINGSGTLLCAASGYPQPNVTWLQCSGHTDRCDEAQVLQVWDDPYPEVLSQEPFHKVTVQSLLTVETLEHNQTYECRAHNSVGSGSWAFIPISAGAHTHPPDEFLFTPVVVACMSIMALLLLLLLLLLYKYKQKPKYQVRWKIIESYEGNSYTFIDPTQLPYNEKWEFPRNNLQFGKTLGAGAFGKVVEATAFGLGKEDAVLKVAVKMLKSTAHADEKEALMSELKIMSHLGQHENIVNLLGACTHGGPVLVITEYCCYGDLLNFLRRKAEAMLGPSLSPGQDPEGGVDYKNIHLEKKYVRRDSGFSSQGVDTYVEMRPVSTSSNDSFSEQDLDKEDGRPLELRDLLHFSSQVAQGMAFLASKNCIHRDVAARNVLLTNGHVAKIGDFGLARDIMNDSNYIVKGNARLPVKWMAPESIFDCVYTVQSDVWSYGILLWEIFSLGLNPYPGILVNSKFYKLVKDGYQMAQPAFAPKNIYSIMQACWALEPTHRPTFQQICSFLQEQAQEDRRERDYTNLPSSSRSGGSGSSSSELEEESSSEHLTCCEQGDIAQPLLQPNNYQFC
T1 sequence (P10721 589-937): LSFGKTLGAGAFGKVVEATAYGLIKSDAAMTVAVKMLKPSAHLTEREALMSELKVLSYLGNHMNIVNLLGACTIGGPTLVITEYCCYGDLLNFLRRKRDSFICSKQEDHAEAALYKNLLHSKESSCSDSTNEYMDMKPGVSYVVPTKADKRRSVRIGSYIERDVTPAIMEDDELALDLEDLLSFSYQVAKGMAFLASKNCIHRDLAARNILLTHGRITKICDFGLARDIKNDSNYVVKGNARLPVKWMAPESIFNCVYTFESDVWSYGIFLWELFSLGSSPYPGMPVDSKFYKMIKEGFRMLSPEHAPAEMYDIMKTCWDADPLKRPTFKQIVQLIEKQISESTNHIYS

Row | SMILES | IC50 [1] [nM] | IC50 [2] [nM] | IC50 [3] [nM]
1 | Clc1cnc2[nH]cc(Cc3cnc(NC4CCCCC4)nc3)c2c1 [Compound P-3001, [5-(5-chloro-1H-pyrrolo[2,3-b]pyridin-3-ylmethyl)-pyrimidin-2-yl]-cyclohexyl-amine] | > 1000 | < 100 | < 100
2 | Clc1cnc2[nH]cc(Cc3cnc(NC4CCCC4)nc3)c2c1 [Compound P-3003, [5-(5-Chloro-1H-pyrrolo[2,3-b]pyridin-3-ylmethyl)-pyrimidin-2-yl]-cyclopentyl-amine] | > 1000 | < 1000 | < 1000
3 | FC1(F)CCC(Nc2ncc(Cc3c[nH]c4ncc(Cl)cc34)cn2)CC1 [Compound P-3004] | > 1000 | < 100 | < 10
4 | Clc1cnc2[nH]cc(Cc3cnc(NC4CC4)nc3)c2c1 [Compound P-3005, [5-(5-Chloro-1H-pyrrolo[2,3-b]pyridin-3-ylmethyl)-pyrimidin-2-yl]-cyclopropyl-amine] | > 1000 | < 1000 | < 1000
5 | Clc1cnc2[nH]cc(Cc3cnc(NC4CCCCCC4)nc3)c2c1 [Compound P-3006, [5-(5-Chloro-1H-pyrrolo[2,3-b]pyridin-3-ylmethyl)-pyrimidin-2-yl]-cycloheptyl-amine] | > 1000 | < 1000 | < 10
6 | COc1ccccc1Nc1ncc(Cc2c[nH]c3ncc(Cl)cc23)cn1 [Compound P-3016, [5-(5-Chloro-1H-pyrrolo[2,3-b]pyridin-3-ylmethyl)-pyrimidin-2-yl]-(2-methoxy-phenyl)-amine] | > 1000 | < 1000 | < 100
7 | Fc1cccc(Nc2ncc(Cc3c[nH]c4ncc(Cl)cc34)cn2)c1 [Compound P-3017, [5-(5-Chloro-1H-pyrrolo[2,3-b]pyridin-3-ylmethyl)-pyrimidin-2-yl]-(3-fluoro-phenyl)-amine] | > 1000 | < 1000 | < 100
8 | Cc1cnc2[nH]cc(Cc3cnc(Nc4ccc(C(F)(F)F)nc4)nc3)c2c1 [Compound P-3018, [5-(5-Methyl-1H-pyrrolo[2,3-b]pyridin-3-ylmethyl)-pyrimidin-2-yl]-(6-trifluoromethyl-pyridin-3-yl)-amine] | < 100 | < 100 | < 10
9 | COc1ccc(Nc2ccc(Cc3c[nH]c4ncc(C)cc34)c(F)n2)cn1 [Compound P-3019, [6-fluoro-5-(5-methyl-1H-pyrrolo[2,3-b]pyridin-3-ylmethyl)-pyridin-2-yl]-(6-methoxy-pyridin-3-yl)-amine] | < 1000 | < 10 | < 10
10 | COc1ccc(Nc2ncc(Cc3c[nH]c4ncc(C)cc34)cn2)cn1 [Compound P-3020, (6-Methoxy-pyridin-3-yl)-[5-(5-methyl-1H-pyrrolo[2,3-b]pyridin-3-ylmethyl)-pyrimidin-2-yl]-amine] | < 100 | < 10 | < 10
11 | COc1ccc(Nc2ncc(Cc3c[nH]c4ncc(C)cc34)cn2)cc1 [Compound P-3021, (4-Methoxy-phenyl)-[5-(5-methyl-1H-pyrrolo[2,3-b]pyridin-3-ylmethyl)-pyrimidin-2-yl]-amine] | < 100 | < 10 | < 10
12 | COc1cc(Nc2ncc(Cc3c[nH]c4ncc(C)cc34)cn2)ccc1F [Compound P-3022, (4-Fluoro-3-methoxy-phenyl)-[5-(5-methyl-1H-pyrrolo[2,3-b]pyridin-3-ylmethyl)-pyrimidin-2-yl]-amine] | < 100 | < 100 | < 100
13 | COc1ccc(Nc2ncc(Cc3c[nH]c4ncc(C)cc34)cn2)cc1F [Compound P-3023, (3-Fluoro-4-methoxy-phenyl)-[5-(5-methyl-1H-pyrrolo[2,3-b]pyridin-3-ylmethyl)-pyrimidin-2-yl]-amine] | < 100 | < 100 | < 100

Next, values leading:

Row | IC50 [1] [nM] | IC50 [2] [nM] | IC50 [3] [nM] | SMILES
14 | < 100 | < 10 | < 100 | CCCOc1ccc(Nc2ncc(Cc3c[nH]c4ncc(C)cc34)cn2)cc1 [Compound P-3024, [5-(5-Methyl-1H-pyrrolo[2,3-b]pyridin-3-ylmethyl)-pyrimidin-2-yl]-(4-propoxy-phenyl)-amine]
15 | < 10 | < 10 | < 100 | CCc1ccc(Nc2ncc(Cc3c[nH]c4ncc(C)cc34)cn2)cc1 [Compound P-3025, (4-Ethyl-phenyl)-[5-(5-methyl-1H-pyrrolo[2,3-b]pyridin-3-ylmethyl)-pyrimidin-2-yl]-amine]
16 | < 100 | < 10 | < 10 | CCOc1ccc(Nc2ncc(Cc3c[nH]c4ncc(C)cc34)cn2)cc1 [Compound P-3026, (4-Ethoxy-phenyl)-[5-(5-methyl-1H-pyrrolo[2,3-b]pyridin-3-ylmethyl)-pyrimidin-2-yl]-amine]
17 | < 100 | < 10 | < 10 | CCOc1ccc(Nc2ncc(Cc3c[nH]c4ncc(C)cc34)cn2)cn1 [Compound P-3027, (6-Ethoxy-pyridin-3-yl)-[5-(5-methyl-1H-pyrrolo[2,3-b]pyridin-3-ylmethyl)-pyrimidin-2-yl]-amine]
18 | < 100 | < 1000 | > 1000 | Cc1cnc2[nH]cc(Cc3cnc(Nc4cc(-c5ccc(F)cc5)n[nH]4)nc3)c2c1 [Compound P-3028, [5-(4-Fluoro-phenyl)-2H-pyrazol-3-yl]-[5-(5-methyl-1H-pyrrolo[2,3-b]pyridin-3-ylmethyl)-pyrimidin-2-yl]-amine]
19 | < 1000 | < 100 | < 100 | Cc1cnc2[nH]cc(Cc3cnc(Nc4cc(C(C)(C)C)n[nH]4)nc3)c2c1 [Compound P-3029, (5-tert-Butyl-2H-pyrazol-3-yl)-[5-(5-methyl-1H-pyrrolo[2,3-b]pyridin-3-ylmethyl)-pyrimidin-2-yl]-amine]
20 | < 10 | < 10 | < 100 | Cc1cnc2[nH]cc(Cc3cnc(Nc4ccc(C(C)(C)C)cc4)nc3)c2c1 [Compound P-3030, (4-tert-Butyl-phenyl)-[5-(5-methyl-1H-pyrrolo[2,3-b]pyridin-3-ylmethyl)-pyrimidin-2-yl]-amine amine]
21 | < 10 | < 10 | < 1000 | Cc1cnc2[nH]cc(Cc3cnc(Nc4ccc(C(O)(C(F)(F)F)C(F)(F)F)cc4)nc3)c2c1 [Compound P-3031, 1,1,1,3,3,3-Hexafluoro-2-{4-[5-(5-methyl-1H-pyrrolo[2,3-b]pyridin-3-ylmethyl)-pyrimidin-2-ylamino]-phenyl}-propan-2-ol]
22 | < 1000 | < 1000 | > 1000 | Cc1cnc2[nH]cc(Cc3cnc(Nc4cc(C5CC5)n[nH]4)nc3)c2c1 [Compound P-3032, (5-Cyclopropyl-2H-pyrazol-3-yl)-[5-(5-methyl-1H-pyrrolo[2,3-b]pyridin-3-ylmethyl)-pyrimidin-2-yl]-amine]
23 | < 10 | < 10 | < 100 | CSc1ccc(Nc2ncc(Cc3c[nH]c4ncc(C)cc34)cn2)cc1 [Compound P-3033, [5-(5-Methyl-1H-pyrrolo[2,3-b]pyridin-3-ylmethyl)-pyrimidin-2-yl]-(4-methylsulfanyl-phenyl)-amine]
24 | < 100 | < 10 | < 100 | Cc1cnc2[nH]cc(Cc3cnc(Nc4ccc(S(C)(=O)=O)cc4)nc3)c2c1 [Compound P-3034, (4-Methanesulfonyl-phenyl)-[5-(5-methyl-1H-pyrrolo[2,3-b]pyridin-3-ylmethyl)-pyrimidin-2-yl]-amine]
25 | < 1000 | < 100 | < 1000 | CCn1ccc(Nc2ncc(Cc3c[nH]c4ncc(C)cc34)cn2)n1 [Compound P-3035, (1-Ethyl-1H-pyrazol-3-yl)-[5-(5-methyl-1H-pyrrolo[2,3-b]pyridin-3-ylmethyl)-pyrimidin-2-yl]-amine]
26 | < 100 | < 10 | < 10 | CCn1cc(Nc2ncc(Cc3c[nH]c4ncc(C)cc34)cn2)cn1 [Compound P-3036, (1-Ethyl-1H-pyrazol-4-yl)-[5-(5-methyl-1H-pyrrolo[2,3-b]pyridin-3-ylmethyl)-pyrimidin-2-yl]-amine]
27 | > 1000 | > 1000 | > 1000 | Cc1cnc2[nH]cc(Cc3cnc(Nc4cc(C(F)(F)F)n[nH]4)nc3)c2c1 [Compound P-3037, [5-(5-Methyl-1H-pyrrolo[2,3-b]pyridin-3-ylmethyl)-pyrimidin-2-yl]-(5-trifluoromethyl-2H-pyrazol-3-yl)-amine]
28 | – | < 100 | < 100 | O=C(c1ccc(Nc2ccc(C3CC3)nc2)nc1F)c1c[nH]c2ncccc12 [Compound P-3052, [6-(6-Cyclopropyl-pyridin-3-ylamino)-2-fluoro-pyridin-3-yl]-(1H-pyrrolo[2,3-b]pyridin-3-yl)-methanone]
29 | – | < 10 | < 10 | Fc1nc(Nc2ccc(C3CC3)nc2)ccc1Cc1c[nH]c2ncccc12 [Compound P-3053, (6-Cyclopropyl-pyridin-3-yl)-[6-fluoro-5-(1H-pyrrolo[2,3-b]pyridin-3-ylmethyl)-pyridin-2-yl]-amine]
